Patent US20180110762A1, “Compositions Methods for Treating Chronic Kidney Disease” (Merck Sharp & Dohme Corp, priority 2015, published 2018)

Experiments:
[1] = test system: male obese ZSF1 rats (diabetic nephropathy model); assay: ZSF1 rat study: renal fibrosis score (histology); type: in vivo; details: for renal fibrosis score (expressed as 0-5): obese ZSF1 rats, week 28
Procedure: The effects of Compound A (“A”) on renal function, plasma triglycerides, plasma cholesterol, kidney collagen I, kidney collagen III, renal histology, glomerular filtration rate, fibrosis score, and mRNA gene expression (profibrotic genes and integrin β3) were evaluated in male obese ZSF1 rats (a hybrid F1 of Zucker diabetic fatty rat and spontaneously hypertensive heart failure rat; a diabetic nephropathy model) when administered as in-feed for 28 weeks. Sixty obese male ZSF1 rats were randomized to five groups: Obese control (n=12), Compound A 60 mpk (n=12), Compound A 200 mpk (n=12), Compound A 400 mpk (n=12), Enalapril 10 mpk (n=12); Eight lean male ZSF1 rats were used for normal control. Renal functional changes were monitored by blood and urine analysis following in-feed dosing for 28 weeks. Compound exposure was also monitored during the study.
Upon completion of the study, animals were euthanized and blood and organs (kidney, heart, aorta, eyes, and lumber vertebrae (LV1-LV5) and left femur) were collected for histology assessment (including EM for the kidneys) or DEXA scan (lumber vertebrae and left femur). Kidney tissues were fixed in 10% formalin and then paraffin embedded. Tissue sections were stained with hematoxylin and eosin (H&E), periodic acid-Schiff (PAS), and Masson's trichrome and evaluated under light microscope. The severity of histopathologic changes in renal tubules, interstitium, vasculature, and glomeruli were graded on a 1 to 5 scale corresponding to minimal, mild, moderate, marked, and severe as described previously. Sections from both kidneys were examined. Collagen deposition in the kidney was graded on a 1 to 5 scale corresponding to minimal, mild, moderate, marked, and severe, based on the blue stained area size and intensity.

postmenopausal women = details: Phase II study; cited from earlier work
[2] = target: T1, Human recombinant integrin αvβ1 (Homo sapiens, UniProt P05556+P06756); assay: Solid phase receptor assay, αvβ1 (fibronectin); type: binding
T1 construct: purchased R&D Systems
Procedure: The assay was performed according to the method described in International Patent Publication WO 2014/015054 A1 “Beta Amino Acid Derivatives As Integrin Antagonists.” Briefly, 96-well plates were coated overnight with purified fibronectin or vitronectin (R&D Systems) in TBS+ buffer (25 mM Tris 7.4, 137 mM NaCl, 2.7 mM KCl, 1 mM CaCl2, 1 mM MgCl2, 1 mM MnCl2). Compound A was added at different concentrations to recombinant human integrin proteins (R&D Systems) reconstituted in TBS+/0.1% bovine serum albumin, and 50 μL of this mixture were added to the empty wells of the coated plate and incubated for 1-2 hours. After 3 washes, 50 μL of biotinylated antibody (R&D Systems) in TBS+/0.1% bovine serum albumin were added. The procedure continued with three more washes, addition of 50 μL of streptavidin-conjugated horseradish peroxidase (R&D Systems), and incubation for 20 minutes. After 3 more washes, 50 μL of tetramethylbenzidine (TMB) substrate (SIGMA) were added and plates were read after 20 min by colorimetric detection at 650 nm wavelength in an EnVision Multilabel Plate Reader (Perkin Elmer). The concentrations of fibronectin used were: 2 μg/mL for the α5β1 assay and 5 μg/mL for the αvβ1 assay. The concentrations of vitronectin used were: 1 μg/mL for the αvβ3 assay and 0.25 μg/mL for the αvβ5 assay. […]

human podocytes [3] = assay: Oris cell migration assay, PAN-induced podocyte motility, vitronectin coated plate; type: cell-based; details: 48 h; for % migrated cells vs control cells: VN plate
Procedure: (§1) The effects of Compound A on podocyte motility were evaluated using Oris cell migration assay kit in 96-well plates (coated with either vitronectin or fibronectin). The Oris™ Cell Migration Assay is designed with a unique cell seeding stopper or biocompatible gel, detection mask, and stopper tool. These unique plate designs generate highly reproducible results using a microscope, digital imaging system. 7 to 10-day differentiated human podocytes (100 ul of 50,000 cells/ml) were seeded in each well of the ORIS plate. After sitting at room temperature for about 15 minutes, the plate was placed into 37° C. incubator and podocytes were incubated with complete podocyte medium for 24 h. Stoppers from each well (keeping stoppers in 4 wells which were served as time zero control) were carefully removed, medium discarded, and fresh (10% FBS) podocyte medium added to each well. Podocytes were pretreated with Compound A (10 uM to 0.01 nM) for 2 h prior to puromycin animonucleoside (PAN, 30 ug/ml or 15 ug/ml) treatment. Podocytes were then treated with PAN in the presence or absence of Compound A at different concentrations (ranging from 10 uM to 0.01 nM) in 10% FBS medium for 48 h. Podocytes were then fixed with 4% paraformaldehyde in PBS for 30 minutes (adding 50 ul to each well). After discarding the fixative, podocytes were stained with Hoechst 33342 (stock […] working concentration at 5 uM) for 30 min. Podocytes were then washed with PBS three times. Finally, after adding 100 ul of PBS to each well, plate was sealed with a black cover and kept at 4° C. until image analysis. Images of podocyte motility were captured using Acumen eX3 (manufacturer TTP Labtech Ltd. address: Melbourn Science Park, Melbourn, Hertfordshire SG8 6EE, United Kingdom).
Effect of Compound A (“A”) on human podocyte motility was examined using Oris cell migration assay in vitronectin (VN) coated-96-well plate.

human podocytes [4] = assay: Oris cell migration assay, podocyte motility, Compound A alone, vitronectin coated plate; type: cell-based; details: for % migrated cells vs control cells: 48 h, VN plate
Procedure: as §1
Effect of Compound A (“A”) alone on human podocyte motility was examined using Oris cell migration assay in vitronectin (VN) coated-96-well plate.

T1 sequence (P06756 31-992 limits assumed): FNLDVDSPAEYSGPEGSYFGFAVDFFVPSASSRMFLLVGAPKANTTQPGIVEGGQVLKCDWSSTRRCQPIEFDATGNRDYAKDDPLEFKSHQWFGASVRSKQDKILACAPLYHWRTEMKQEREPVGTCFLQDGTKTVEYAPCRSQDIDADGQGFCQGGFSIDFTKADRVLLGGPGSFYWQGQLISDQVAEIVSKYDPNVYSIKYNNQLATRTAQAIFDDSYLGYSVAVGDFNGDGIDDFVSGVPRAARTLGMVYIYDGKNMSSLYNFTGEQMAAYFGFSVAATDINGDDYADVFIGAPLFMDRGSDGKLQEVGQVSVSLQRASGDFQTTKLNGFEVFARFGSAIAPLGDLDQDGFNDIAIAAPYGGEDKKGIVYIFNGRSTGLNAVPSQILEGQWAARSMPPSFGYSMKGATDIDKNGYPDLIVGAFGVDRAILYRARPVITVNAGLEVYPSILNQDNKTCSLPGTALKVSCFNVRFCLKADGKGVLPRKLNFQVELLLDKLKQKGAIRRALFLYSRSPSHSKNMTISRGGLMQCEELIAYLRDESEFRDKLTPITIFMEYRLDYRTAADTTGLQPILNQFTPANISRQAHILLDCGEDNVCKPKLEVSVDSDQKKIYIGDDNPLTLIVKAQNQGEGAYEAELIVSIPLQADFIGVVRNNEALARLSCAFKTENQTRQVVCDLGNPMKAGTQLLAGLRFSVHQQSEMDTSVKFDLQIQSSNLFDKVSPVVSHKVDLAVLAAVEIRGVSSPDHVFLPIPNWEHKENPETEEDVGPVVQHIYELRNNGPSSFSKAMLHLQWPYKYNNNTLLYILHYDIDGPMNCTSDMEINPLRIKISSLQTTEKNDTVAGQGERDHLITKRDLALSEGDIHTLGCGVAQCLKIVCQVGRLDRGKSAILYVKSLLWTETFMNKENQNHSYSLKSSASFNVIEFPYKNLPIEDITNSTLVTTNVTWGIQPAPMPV
T1 sequence (P05556 21-728 limits assumed): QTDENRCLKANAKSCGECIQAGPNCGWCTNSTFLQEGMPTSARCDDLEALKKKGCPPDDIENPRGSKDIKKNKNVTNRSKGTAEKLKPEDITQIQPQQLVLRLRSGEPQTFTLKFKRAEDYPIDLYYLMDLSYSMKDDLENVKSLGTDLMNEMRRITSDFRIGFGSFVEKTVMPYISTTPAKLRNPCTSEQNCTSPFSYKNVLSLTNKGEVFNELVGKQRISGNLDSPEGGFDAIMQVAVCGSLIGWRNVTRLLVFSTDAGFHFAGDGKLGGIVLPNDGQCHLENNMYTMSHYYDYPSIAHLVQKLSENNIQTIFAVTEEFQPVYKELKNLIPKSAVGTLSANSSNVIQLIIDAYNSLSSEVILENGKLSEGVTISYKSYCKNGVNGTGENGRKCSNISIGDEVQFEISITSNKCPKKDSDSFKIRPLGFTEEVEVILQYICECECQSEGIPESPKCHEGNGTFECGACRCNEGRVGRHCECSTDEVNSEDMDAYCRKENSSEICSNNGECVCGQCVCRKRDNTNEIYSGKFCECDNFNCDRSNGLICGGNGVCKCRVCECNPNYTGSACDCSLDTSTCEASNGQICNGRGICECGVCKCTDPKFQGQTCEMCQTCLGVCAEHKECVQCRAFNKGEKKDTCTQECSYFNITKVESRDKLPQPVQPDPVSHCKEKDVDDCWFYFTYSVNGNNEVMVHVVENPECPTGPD

## COc1ccc([C@H](CC(=O)O)N2CCN(CCCc3ccc4c(n3)NCCC4)C2=O)cn1 [Compound A, 3-{2-Oxo-3-[3-(5,6,7,8-tetrahydro-[1,8]naphthyridin-2-yl)-propyl]imidazolidin-1-yl}-3 (S)-(6-methoxy-pyridin-3-yl)-propionic acid]
[1]; 400 mpk at week 28
  effect on renal fibrosis score vs Obese Vehicle: significantly decreased
[1]; ZSF-1 rats vs untreated obese ZSF-1 rats (summary)
  markers of renal fibrosis: improvement in markers of renal fibrosis
[1]; 200 mpk in-feed
  renal fibrosis score (expressed as 0-5): 2.7 ± 0.1
[1]; 400 mpk in-feed
  renal fibrosis score (expressed as 0-5): 2.2 ± 0.1
Postmenopausal women
  bone density: increase bone density
[2]; αvβ1, first of two experiments
  IC50: 2.1 nM
[2]; αvβ1, second of two experiments
  IC50: 0.9 nM
Human podocytes [3]; Homo sapiens, vitronectin coated plates, PAN 30 ug/ml, read-out: IC50, inhibition of puromycin-induced human podocyte motility
  IC50: 9.94 nM
Human podocytes [3]; PAN 30 ug/ml + A 0.01 nM
  % migrated cells vs control cells: 55.1%
Human podocytes [3]; PAN 30 ug/ml + A 0.0316 nM
  % migrated cells vs control cells: 44.0%
Human podocytes [3]; PAN 30 ug/ml + A 0.1 nM
  % migrated cells vs control cells: 43.0%
Human podocytes [3]; PAN 30 ug/ml + A 0.316 nM
  % migrated cells vs control cells: 36.6%
Human podocytes [3]; PAN 30 ug/ml + A 1 nM
  % migrated cells vs control cells: 42.1%
Human podocytes [3]; PAN 30 ug/ml + A 3.16 nM
  % migrated cells vs control cells: 31.3%
Human podocytes [3]; PAN 30 ug/ml + A 10 nM
  % migrated cells vs control cells: 28.6%
Human podocytes [3]; PAN 30 ug/ml + A 100 nM
  % migrated cells vs control cells: 19.6%
Human podocytes [3]; PAN 30 ug/ml + A 1 uM
  % migrated cells vs control cells: 16.1%
Human podocytes [3]; PAN 30 ug/ml + A 10 uM
  % migrated cells vs control cells: 16.9%
Human podocytes [4]; 48 hours, vitronectin coated plate
  human podocyte motility, Compound A alone vs vehicle: significant inhibition of motility in a dose-dependent manner
Human podocytes [4]; A alone 0.01 nM
  % migrated cells vs control cells: 39.7%
Human podocytes [4]; A alone 0.0316 nM
  % migrated cells vs control cells: 43.7%
Human podocytes [4]; A alone 0.1 nM
  % migrated cells vs control cells: 38.8%
Human podocytes [4]; A alone 0.316 nM
  % migrated cells vs control cells: 38.6%
Human podocytes [4]; A alone 1 nM
  % migrated cells vs control cells: 33.4%
Human podocytes [4]; A alone 3.16 nM
  % migrated cells vs control cells: 30.6%
Human podocytes [4]; A alone 10 nM
  % migrated cells vs control cells: 19.2%
Human podocytes [4]; A alone 100 nM
  % migrated cells vs control cells: 20.5%
Human podocytes [4]; A alone 1 uM
  % migrated cells vs control cells: 17.9%
Human podocytes [4]; A alone 10 uM
  % migrated cells vs control cells: 17.9%
